# Measured values from the NIST ThermoML archive (doi:10.1016/j.fluid.2010.03.027).
# ± gives the expanded uncertainty stated by the source.
# Experiments:
# [1] = activity coefficient (dimensionless); of the first substance listed, at infinite dilution; xn = mol fraction of the nth substance listed; conditions: 101 kPa, Liquid, dilutor technique, x1 = 0
# [2] = Liquid, Closed cell (Static) method
SMILES,activity coefficient ([1]; 288.15 K),activity coefficient ([1]; 298.15 K),activity coefficient ([1]; 303.15 K),further results
CSC [2-thiapropane] + CCCCCC,2.16 ± 0.9,1.95 ± 0.68,1.91 ± 0.6,activity coefficient ([1]; 293.15 K): 2.04 ± 0.78
C1CCSC1 [tetrahydrothiophene],–,–,–,vapor or sublimation pressure ([2]; 293.97 K): 2.1 ± 1.2 kPa; vapor or sublimation pressure ([2]; 312.87 K): 5.9 ± 1.2 kPa
CCC [propane],–,–,–,vapor or sublimation pressure ([2]; 293.94 K): 852.6 ± 2.3 kPa; vapor or sublimation pressure ([2]; 293.97 K): 853.1 ± 2.3 kPa; vapor or sublimation pressure ([2]; 312.85 K): 1358.5 ± 2.8 kPa; vapor or sublimation pressure ([2]; 312.87 K): 1361.3 ± 2.8 kPa
CSC [2-thiapropane],–,–,–,vapor or sublimation pressure ([2]; 293.94 K): 53.2 ± 1.2 kPa; vapor or sublimation pressure ([2]; 312.86 K): 108.8 ± 1.2 kPa

# More lines, main results first:
activity coefficient ([1]; 288.15 K),activity coefficient ([1]; 298.15 K),activity coefficient ([1]; 303.15 K),SMILES,further results
1.5 ± 0.66,1.45 ± 0.52,1.4 ± 0.44,CSC [2-thiapropane] + C=C(C)CC(C)(C)C,–
1.77 ± 0.7,1.72 ± 0.54,1.67 ± 0.3,CSC [2-thiapropane] + CC(C)CC(C)(C)C,–
1.77 ± 0.68,1.71 ± 0.52,1.64 ± 0.46,CSC [2-thiapropane] + C=CCCCC,–
